Reference: patent publication US20260258368A1, “METABOLIC SELECTION FOR GLYCOGEN-STORING CELLS IN VITRO” (The Board of Trustees of the Leland Stanford Junior …, priority 2023, published 2026)

Assays:
Assay in all cases: Poly(I:C) treatment, interferon-stimulated gene expression (qPCR, RNA-seq)
Conditions in all cases: 50 μg/mL poly(I:C), 1 day
[1] = test system: HuH7 liver cancer cells; type: cell-based, human
Text: (§1) RNA extraction and bulk-population RNA-seq. Cells were lysed using Zymo RNA lysis buffer and total RNA was extracted from cells using the Zymo Quick RNA kit per the manufacturer's instructions. High-quality RNA with RNA integrity number (RIN)>7 was used for library construction. For each cell-type, we included 2-3 technical replicates, generally defined as different wells of the same cell-type generated in the same differentiation experiment. In one experiment, 46 RNA-seq libraries were multiplexed and then sequenced on 2 lanes of the Illumina NovaSeq 6000 S4 sequencer by Novogene to generate 150-bp paired-end reads. In a second experiment, 36 RNA-seq libraries were multiplexed and then sequenced on 1 lane of the NovaS4 sequencer by Novogene to generate 150-bp paired-end reads.
(§2) Poly(I:C) treatment. HepG2 cells, HuH7 cells, metabolically-selected H1 hPSC-and H7 hPSC-derived hepatocytes, and primary human hepatocytes (Lonza and Gibco) were thawed in a 37° C. water bath for 3 minutes. After thawing, HepG2, HuH7, and hPSC-derived hepatocytes were quenched in warm DMEM/F12 to dilute the cryopreservation solution. After thawing, primary human hepatocytes, obtained from either Lonza or Gibco, were respectively quenched in MCHT50 and CHRM to dilute the cryopreservation solution. Thawed cells were centrifuged at 1500 rpm for 5 mins and the supernatant was discarded, leaving the cell pellets. The cell pellets were resuspended in the aforementioned hepatocyte maintenance media (Lonza hepatocyte culture medium supplemented with 10 μM Dexamethasone, 10 μM Forskolin, 2 μM RO4929097, 200 μg/ml AA2P, 10 μg/ml Insulin, and 1 μM Thiazovivin [DFRAIT]). For each cell-type, ~400,000 cells were plated per well of 24-well plate that had been coated with collagen 1 (Corning Biocoat). For hPSC-derived hepatocytes, the collagen 1-coated wells were briefly treated with Geltrex prior to plating cells. The media was replenished every day for 2 days and on the third day, hepatocyte maintenance media+ DFRAIT+50 μg/ml poly(I:C) was added for 24 hours. Cells were then lysed with RNA lysis buffer (Zymo) and processed with an RNA extraction kit (Zymo) to extract RNA for qPCR and RNA-seq.

[2] = test system: hPSC-derived hepatocytes (H1 and H7 hPSC lines); type: cell-based, human
Text: as §1, §2

[3] = test system: HepG2 liver cancer cells; type: cell-based, human
Text: as §1, §2

[4] = test system: primary adult human hepatocytes (Lonza, Gibco); type: cell-based
Text: as §1
Poly(I:C) treatment. HepG2 cells, HuH7 cells, metabolically-selected H1 hPSC-and H7 hPSC-derived hepatocytes, and primary human hepatocytes (Lonza and Gibco) were thawed in a 37° C. water bath for 3 minutes. After thawing, HepG2, HuH7, and hPSC-derived hepatocytes were quenched in warm DMEM/F12 to dilute the cryopreservation solution. After thawing, primary human hepatocytes, obtained from either Lonza or Gibco, were respectively quenched in MCHT50 and CHRM to dilute the cryopreservation solution. Thawed cells were centrifuged at 1500 rpm for 5 mins and the supernatant was discarded, leaving the cell pellets. […]

poly(I:C)
ISG and inflammatory cytokine expression change (RNA-seq) [1]: minimal changes | upregulation of interferon-stimulated genes (qPCR) [1]: largely failed to upregulate | ISG and inflammatory cytokine expression change (RNA-seq) [2]: significant ISG and inflammatory cytokine upregulation | induction of interferon-stimulated genes MX1, VIPERIN, IFIT1, IFIT2, IFIT3, OAS1, OASL, ISG15 (qPCR) ([2]; H1- and H7-derived hepatocytes): strongly induced | ISG and inflammatory cytokine expression change (RNA-seq) [3]: minimal changes | upregulation of interferon-stimulated genes (qPCR) [3]: largely failed to upregulate | ISG and inflammatory cytokine expression change (RNA-seq) [4]: significant ISG and inflammatory cytokine upregulation | upregulation of interferon-stimulated genes (qPCR) ([4]; two hepatocyte sources): upregulated ISGs
